In patent US6706740B2, “Fungicidal heterocyclic aromatic amides and their compositions, methods of use and preparation” (Dow AgroSciences LLC, priority 1999, dated 2004):

What was measured:
[1] = system: Puccinia recondita—PUCCRT; experiment: Brown Rust of Wheat, in vivo whole plant, 24 Hour Protectant; settings: Puccinia; wheat plants sprayed at 100 ppm, inoculated after 24 hours; control of fungal infection vs untreated plants; read-out: PUCCRT in vivo 1 Day Protectant
Ustilago maydis (USTIMA) = experiment: microbe, parasite or virus in culture; format: cell-based; settings: Mycosarcoma maydis, read-out: USTIMA in vitro Growth Inhibition
[2] = system: Mycosphaerella graminicola (Septoria tritici—SEPTTR); experiment: In vitro fungal growth inhibition, Mycosphaerella graminicola (SEPTTR); format: cell-based; settings: Zymoseptoria tritici; 25 ppm in the growth medium; read-out: SEPTTR in vitro Growth Inhibition
[3] = system: Phytophthora infestans—PHYTIN; experiment: whole plant or invertebrate; format: in vivo; settings: Phytophthora, in Solanum lycopersicum, 24 h, read-out: PHYTIN in vivo 1 Day Protectant
[4] = system: Magnaporthe grisea (Pyricularia oryzae—PYRIOR); experiment: microbe, parasite or virus in culture; format: cell-based; settings: Pyricularia oryzae, read-out: PYRIOR in vitro Growth Inhibition
Septoria tritici—SEPTTR = experiment: Leaf Blotch of Wheat, in vivo whole plant, 24 Hour Protectant; settings: Zymoseptoria tritici, 24 h, wheat plants sprayed at 100 ppm, inoculated after 24 hours; control of fungal infection vs untreated plants; read-out: SEPTTR in vivo 1 Day Protectant
[5] = system: Rhizoctonia solani (RHIZSO); experiment: microbe, parasite or virus in culture; format: cell-based; settings: Rhizoctonia solani, read-out: RHIZSO in vitro Growth Inhibition
Erysiphe graminis—ERYSGT = experiment: Powdery Mildew of Wheat, in vivo whole plant, 24 Hour Protectant; settings: Erysiphe; wheat plants sprayed at 100 ppm, inoculated after 24 hours; control of fungal infection vs untreated plants; read-out: ERYSGT in vivo 1 Day Protectant
[6] = system: Leptosphaeria nodorum—LEPTNO; experiment: Glume Blotch of Wheat, in vivo whole plant, 24 Hour Protectant; settings: wheat plants sprayed at 100 ppm, inoculated after 24 hours, control of fungal infection vs untreated plants; for pest or weed control at 100 ppm: Leptosphaeria, read-out: LEPTNO in vivo 1 Day Protectant
[7] = system: Phytophthora infestans (PHYTIN); experiment: microbe, parasite or virus in culture; format: cell-based; settings: Phytophthora infestans, read-out: PHYTIN in vitro Growth Inhibition
[8] = system: Stagonospora nodorum (Leptosphaeria nodorum—LEPTNO); experiment: In vitro fungal growth inhibition, Stagonospora nodorum (LEPTNO); format: cell-based; settings: Leptosphaeria; 25 ppm in the growth medium; read-out: LEPTNO in vitro Growth Inhibition

| Structure (SMILES) | pest or weed control at 100 ppm [1] | inhibition at 25 ppm (Ustilago maydis (USTIMA)) | inhibition at 25 ppm [2] | pest or weed control at 100 ppm [3] | inhibition at 25 ppm [4] | pest or weed control at 100 ppm (Septoria tritici—SEPTTR) | inhibition at 25 ppm [5] | pest or weed control at 100 ppm (Erysiphe graminis—ERYSGT) | pest or weed control at 100 ppm [6] | inhibition at 25 ppm [7] | inhibition at 25 ppm [8] | LEPTNO in vivo 1 Day Protectant [6] |
| --- | --- | --- | --- | --- | --- | --- | --- | --- | --- | --- | --- | --- |
| O=C(Nc1ccc(Oc2ccccc2C(F)(F)F)cc1)c1nc(Br)ccc1O [Compound 497] | 25 to 74% | < 80% | < 80% | < 25% | < 80% | 25 to 74% | < 80% | < 25% | 25 to 74% | < 80% | < 80% |  |
| O=C(Nc1ccc(Oc2cccc(C(F)(F)F)c2)cc1)c1nc(Br)ccc1O [Compound 498] | 25 to 74% | < 80% | < 80% | < 25% | < 80% | 25 to 74% | < 80% | < 25% | < 25% | < 80% | < 80% |  |
| O=C(Nc1ccc(Oc2ccc(C(F)(F)F)cc2)cc1)c1nc(Br)ccc1O [Compound 499] | 25 to 74% | < 80% | < 80% | < 25% | < 80% | < 25% | < 80% | < 25% | 25 to 74% | < 80% | < 80% |  |
| N#Cc1ccc(Oc2cccc(NC(=O)c3nc(Br)ccc3O)c2)cc1 [Compound 500] | < 25% | < 80% | < 80% | < 25% | < 80% | 25 to 74% | < 80% | < 25% | < 25% | < 80% | < 80% |  |
| COc1cc(Br)nc(C(=O)N[C@H]2COC(=O)[C@H](Cc3ccccc3)[C@@H](OC(=O)C3CCCCC3)[C@H](C)OC2=O)c1O [Compound 501] | 25 to 74% | > 80% | > 80% | < 25% | > 80% | < 25% | < 80% | < 25% | 25 to 74% | < 80% | > 80% |  |
| CC1(C)CC(NC(=O)c2ccncc2O)CC(C)(C)C1 [Compound 505] | < 25% | < 80% | < 80% | < 25% | < 80% | < 25% | < 80% | < 25% | < 25% | < 80% | < 80% |  |
| O=C(NCc1ccccc1)c1ccncc1O [Compound 506] | < 25% | < 80% | < 80% | < 25% | < 80% | < 25% | < 80% | < 25% | < 25% | < 80% | < 80% |  |
| O=C(NCc1ccc(Cl)cc1)c1ccncc1O [Compound 507] | < 25% | < 80% | < 80% | < 25% | < 80% | < 25% | < 80% | < 25% | < 25% | < 80% | < 80% |  |
| COc1ccc(C(C)NC(=O)c2ccncc2O)cc1 (stereo not drawn) [Compound 508] | < 25% | < 80% | < 80% | < 25% | < 80% | < 25% | < 80% | < 25% | < 25% | < 80% | < 80% |  |
| CC(NC(=O)c1ccncc1O)c1ccc(Cl)cc1 (stereo not drawn) [Compound 509] | < 25% | < 80% | < 80% | < 25% | < 80% | < 25% | < 80% | < 25% | < 25% | < 80% | < 80% |  |
| CC(NC(=O)c1ccncc1O)c1ccc(C(F)(F)F)cc1 (stereo not drawn) [Compound 510] | < 25% | < 80% | < 80% | 25 to 74% | < 80% | < 25% | < 80% | < 25% | < 25% | < 80% | < 80% |  |
| CC(NC(=O)c1ccncc1O)c1ccc(OC(F)(F)F)cc1 (stereo not drawn) [Compound 511] | < 25% | < 80% | < 80% | < 25% | < 80% | < 25% | < 80% | < 25% | < 25% | < 80% | < 80% |  |
| CC(NC(=O)c1ccncc1O)c1ccc(Oc2ccccc2)cc1 (stereo not drawn) [Compound 512] | < 25% | < 80% | < 80% | 25 to 74% | < 80% | < 25% | < 80% | < 25% | < 25% | < 80% | < 80% |  |
| Cc1cc(C)c(C(=O)N[C@H]2COC(=O)[C@H](Cc3ccccc3)[C@@H](OC(=O)C(C)C)[C@H](C)OC2=O)c(O)n1 [Compound 529] | 25 to 74% | < 80% | < 80% | < 25% | < 80% | 25 to 74% | < 80% | < 25% | 25 to 74% | < 80% | < 80% |  |
| CC(C)C(=O)O[C@H]1[C@H](C)OC(=O)[C@@H](NC(=O)c2nccnc2O)COC(=O)[C@@H]1Cc1ccccc1 [Compound 534] | 25 to 74% | < 80% | > 80% | < 25% | > 80% | 25 to 74% | < 80% | < 25% |  | > 80% | > 80% | + + |
| CC(C)C(=O)O[C@H]1[C@H](C)OC(=O)[C@@H](NC(=O)c2nnc(O)nc2O)COC(=O)[C@@H]1Cc1ccccc1 [Compound 544] | 25 to 74% | < 80% | < 80% | < 25% | < 80% | 25 to 74% | < 80% | < 25% | 25 to 74% | < 80% | < 80% |  |
| CSc1nnc(C(=O)N[C@H]2COC(=O)[C@H](Cc3ccccc3)[C@@H](OC(=O)C(C)C)[C@H](C)OC2=O)c(O)n1 [Compound 547] | 25 to 74% | < 80% | < 80% | 25 to 74% | < 80% | 25 to 74% | < 80% | < 25% | < 25% | > 80% | < 80% |  |
| CC(C)C(=O)O[C@H]1[C@H](C)OC(=O)[C@@H](NC(=O)c2nscc2O)COC(=O)[C@@H]1Cc1ccccc1 [Compound 550] | 25 to 74% | < 80% | > 80% | < 25% | > 80% | 25 to 74% | < 80% | 25 to 74% |  | > 80% | > 80% | + + |
